Molecular target: Sphingosine 1-phosphate receptor 1 (Homo sapiens, UniProt P21453)
Experiment: Receptor Calcium FLIPR Antagonist Assay: The assay measures intracellular changes of Ca2+ mediated by the synthetic probing agonist 3-{[2-(2-Trifluoromethyl-biphenyl-4-yl)-benzo[b]thiophen-5-ylmethyl]-amino}-propionic acid (GNF-AC-1) in the HeLa-S1P1/Galpha16 cell clone 1: HeLa (human cervix carcinoma, ATCC CCL2) cells stably expressing N-terminally myc-tagged human S1P1 receptors (GenBank accession No. NM001400; UNIPROT P21453) and promiscuous Galpha16 protein (GenBank accession number M63904, Swissprot P30679) are cultured at 37 C., 5% CO2, and 95% relative humidity. The cells are plated in 384 well black plates (10'000 cells per well). After 24 hours the cells are loaded with Fluo-4-AM (1.6 uM in HBSS and 2.5 mM probenicid) for 1 hour at 37 C. After washing, the cells are transferred to the FLIPR. The test compounds are added at different concentrations (<=100 uM) in HBSS in the presence of 0.1% BSA and changes in fluorescence are recorded (indication of agonism).
Format: functional, cell-based

Sphingosine 1-phosphate receptor 1, sequence (P21453 whole entry): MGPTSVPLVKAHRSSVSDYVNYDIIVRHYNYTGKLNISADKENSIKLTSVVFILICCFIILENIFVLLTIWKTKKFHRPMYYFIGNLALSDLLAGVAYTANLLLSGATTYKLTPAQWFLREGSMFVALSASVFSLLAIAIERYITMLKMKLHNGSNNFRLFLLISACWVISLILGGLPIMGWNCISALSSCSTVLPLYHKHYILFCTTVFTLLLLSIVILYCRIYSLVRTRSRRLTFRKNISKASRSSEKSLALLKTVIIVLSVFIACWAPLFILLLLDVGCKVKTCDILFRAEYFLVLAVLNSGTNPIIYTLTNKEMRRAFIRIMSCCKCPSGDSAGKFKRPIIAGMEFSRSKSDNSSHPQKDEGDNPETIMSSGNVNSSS

| SMILES | IC50 [nM] |
| --- | --- |
| Cc1cc([C@H](Nc2ccc(F)c(CN3CC(C(=O)O)C3)c2)C(F)(F)F)ccc1Cl | 0.1 |
| CC[C@@H](Nc1ccc(Cl)c(CNCCC(=O)O)c1)c1cc(C)c(Cl)c(C)c1 | 2.4 |

— ChEMBL document CHEMBL3638859, “Aryl benzylamine compounds” (2014)
